Reference: US4652575A, “2-(ethylene-thio methyl furanyl)amino thiazole derivatives having acid secretion inhibiting activity” (Medosan Industrie Biochimiche Riunite S.p.A., priority 1984, dated 1987)
Where two headings read alike, the source gives them in different places.

Key:
histamine H2 receptors = molecular target: T1, histamine H2 receptors (Cavia porcellus, UniProt P47747); assay: Antagonistic activity to the histamine H2 receptors "in vitro" on insulated atrium auricolas of Guinea pig heart; settings: for inhibition at 10 µM / inhibition at 1 µM / inhibition at 0.1 µM: guinea pig, 0.5 h, read-out: Antagonizing activity to histamine H2 receptors; for inhibition at 10 µM: compound 1·10^-5 M/L; for inhibition at 1 µM: compound 1·10^-6 M/L; for inhibition at 0.1 µM: compound 1·10^-7 M/L; for antagonistic action to the histamine H2 receptors (in words): in vitro
T1 construct: tests on insulated atrium auricolas of Guinea pig heart; from tissue; host or cells: isolated guinea pig heart atrium
T1 sequence (P47747 whole entry): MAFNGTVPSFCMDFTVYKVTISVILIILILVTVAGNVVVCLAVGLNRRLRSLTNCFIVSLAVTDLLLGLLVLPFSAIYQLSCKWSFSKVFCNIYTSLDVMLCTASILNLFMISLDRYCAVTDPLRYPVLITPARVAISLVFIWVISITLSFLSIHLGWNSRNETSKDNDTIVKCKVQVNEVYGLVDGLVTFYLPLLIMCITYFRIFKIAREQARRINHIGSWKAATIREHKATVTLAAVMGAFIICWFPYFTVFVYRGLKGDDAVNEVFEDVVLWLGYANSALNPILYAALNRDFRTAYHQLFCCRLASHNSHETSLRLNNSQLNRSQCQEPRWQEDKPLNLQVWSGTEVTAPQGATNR
Description: (§1) The preparations were a solution of the substances in 2.5% citric acid for the "in vitro" test and 5% citric acid for the "in vivo" test respectively. Citric acid was diluted in normal physiologic saline at neutral pH.
This activity was evaluated "in vitro" by carrying out tests on insulated atrium auricolas of Guinea pig heart. […] Metering was carried out by placing the preparation into a vessel containing a Ringer-Locke solution wherein pure oxygen was bubbling, at a temperature of 37° C. A response of the organ "in vitro" was first established at cumulative histamine doses of 2.5.10^-7, 5.10^-7, 10^-6, 5.10^-6, 10^-5 M/L. After obtaining two constant lines with histamine at a time interval of one hour from one another, the substances under test were added to the bath and after a 30 minutes contact with the preparation, a new histamine response line in the presence of the substance under test was drawn. The activity was tested at various concentrations of the new compounds (10^-5, 10^-6, 10^-7 and in one case 10^-8 M/L).

gastric secretion = assay: Activity on gastric secretion "in vivo" (volume and total acidity of gastric juice after pylorus tieing, Shay); set-up: species or system male Wistar rats; settings: for Total acidity gastric juice secretion / Volume gastric juice secretion / change in vivo at 20 mg/kg: 20 mg/kg oral; for change in vivo at 20 mg/kg / ED50: Rattus norvegicus, po; for ED50: per os, 1 hour before pilorus tieing, read-out: DE50 in rat calculated on total acidity (mEq/4 hours); for ability to reduce the gastric acid secretion (in words): volume and total acidity of gastric juice
Description: as §1
The ability of the compounds according to the present invention to inhibit the gastric secretion was studied "in vivo" both by evaluating the volume reduction of gastric juice, and by measuring the total acidity of same after administration of the substances under test according to the Takeda method (see the aforementioned literature).
To this end, tests have been made on male Wistar rats of an average weight of 200 g. The animals, 10 for each substance, were placed into individual cages provided with ground grating in order to avoid coprophagy, without food but with free access to water for 24 hours before test. […] Four hours later the animals were sacrificed and the gastric juice was collected, of which the volume expressed in ml and the total acidity expressed in mEq was measured. The gastric juice ([…] ) was titrated with 0.1N NaOH to pH 7 to determine the acid concentration. The total acidity was then calculated as the product of the total volume of gastric juice by the acid concentration.

in vivo = settings: po; for LD50 at 360 h: mouse; for LD50: rat
Text: The animals were kept under observation by checking mortality and possible pain signs for 15 days from start of test.

[1] = 6 hours before pilorus tieing, read-out: Total acidity gastric juice secretion, Variation %
[2] = 6 hours before pilorus tieing, read-out: Volume gastric juice secretion, Variation %
[3] = 12 hours before pilorus tieing, read-out: Total acidity gastric juice secretion, Variation %
[4] = 12 hours before pilorus tieing, read-out: Volume gastric juice secretion, Variation %
[5] = 24 hours before pilorus tieing, read-out: Total acidity gastric juice secretion, Variation %
[6] = 24 hours before pilorus tieing, read-out: Volume gastric juice secretion, Variation %
[7] = 36 hours before pilorus tieing, read-out: Total acidity gastric juice secretion, Variation %
[8] = 36 hours before pilorus tieing, read-out: Volume gastric juice secretion, Variation %

Row | SMILES | inhibition at 10 µM (histamine H2 receptors; histamine 1·10^-5 M/L) [%] | inhibition at 10 µM (histamine H2 receptors; histamine 1·10^-6 M/L) [%] | inhibition at 10 µM (histamine H2 receptors; histamine 2,5·10^-7 M/L) [%] | inhibition at 10 µM (histamine H2 receptors; histamine 5·10^-6 M/L) [%] | inhibition at 10 µM (histamine H2 receptors; histamine 5·10^-7 M/L) [%] | inhibition at 1 µM (histamine H2 receptors; histamine 1·10^-5 M/L) [%] | inhibition at 1 µM (histamine H2 receptors; histamine 1·10^-6 M/L) [%] | inhibition at 1 µM (histamine H2 receptors; histamine 2,5·10^-7 M/L) [%] | inhibition at 1 µM (histamine H2 receptors; histamine 5·10^-6 M/L) [%] | inhibition at 1 µM (histamine H2 receptors; histamine 5·10^-7 M/L) [%] | inhibition at 0.1 µM (histamine H2 receptors; histamine 1·10^-5 M/L) [%] | inhibition at 0.1 µM (histamine H2 receptors; histamine 1·10^-6 M/L) [%] | inhibition at 0.1 µM (histamine H2 receptors; histamine 2,5·10^-7 M/L) [%] | inhibition at 0.1 µM (histamine H2 receptors; histamine 5·10^-6 M/L) [%] | inhibition at 0.1 µM (histamine H2 receptors; histamine 5·10^-7 M/L) [%] | antagonistic action to the histamine H2 receptors (in words) (histamine H2 receptors) | Total acidity gastric juice secretion (gastric secretion; 6 hours before pilorus tieing) | Volume gastric juice secretion (gastric secretion; 6 hours before pilorus tieing) | Total acidity gastric juice secretion (gastric secretion; 12 hours before pilorus tieing) | Volume gastric juice secretion (gastric secretion; 12 hours before pilorus tieing) | other results
1 | CN(C)Cc1ccc(CSCCNC(=S)NC(=O)c2ccccc2)o1 [Example No. 1, N-benzoyl-N'-(2-(((5-(dimethylamino)methyl-2-furanyl)methyl)-thio)ethyl)-thiourea] | 100 | 100 | 100 | 100 | 100 | 50 | 80 | 100 | 60 | 90 | 20 | 65 | 90 | 35 | 85 | interesting ability | 0,08 mEq/4 hours | 4,1 ml/4 hours | 0,09 mEq/4 hours | 4,0 ml/4 hours | Total acidity gastric juice secretion (gastric secretion; 24 hours before pilorus tieing): 0,13 mEq/4 hours; Volume gastric juice secretion (gastric secretion; 24 hours before pilorus tieing): 5,0 ml/4 hours; Total acidity gastric juice secretion (gastric secretion; 36 hours before pilorus tieing): 0,14 mEq/4 hours; Volume gastric juice secretion (gastric secretion; 36 hours before pilorus tieing): 5,2 ml/4 hours; change in vivo at 20 mg/kg (gastric secretion; [1]): -53%; change in vivo at 20 mg/kg (gastric secretion; [2]): -23%; change in vivo at 20 mg/kg (gastric secretion; [3]): -40%; change in vivo at 20 mg/kg (gastric secretion; [4]): -21%; change in vivo at 20 mg/kg (gastric secretion; [5]): -23%; change in vivo at 20 mg/kg (gastric secretion; [6]): -11%; change in vivo at 20 mg/kg (gastric secretion; [7]): -12%; change in vivo at 20 mg/kg (gastric secretion; [8]): -7%; ED50 (gastric secretion): 3.4 mg/kg; ability to reduce the gastric acid secretion (in words) (gastric secretion): interesting ability; LD50 at 360 h (in vivo): 750 mg/kg; LD50 (in vivo): 1000 mg/kg
2 | CN(C)Cc1ccc(CSCCNc2nc(-c3ccccc3)cs2)o1 [Example No. 3, 2-(2-(((5-(dimethylamino)methyl-2-furanyl)methyl)thio)ethyl)-amino-4-phenylthiazole] | 95 | 100 | 100 | 100 | 100 | 52 | 85 | 100 | 70 | 100 | 20 | 50 | 85 | 30 | 70 | interesting ability | 0,07 mEq/4 hours | 4,0 ml/4 hours | 0,10 mEq/4 hours | 4,1 ml/4 hours | Total acidity gastric juice secretion (gastric secretion; 24 hours before pilorus tieing): 0,12 mEq/4 hours; Volume gastric juice secretion (gastric secretion; 24 hours before pilorus tieing): 4,8 ml/4 hours; Total acidity gastric juice secretion (gastric secretion; 36 hours before pilorus tieing): 0,15 mEq/4 hours; Volume gastric juice secretion (gastric secretion; 36 hours before pilorus tieing): 5,0 ml/4 hours; change in vivo at 20 mg/kg (gastric secretion; [1]): -59%; change in vivo at 20 mg/kg (gastric secretion; [2]): -24%; change in vivo at 20 mg/kg (gastric secretion; [3]): -33%; change in vivo at 20 mg/kg (gastric secretion; [4]): -20%; change in vivo at 20 mg/kg (gastric secretion; [5]): -29%; change in vivo at 20 mg/kg (gastric secretion; [6]): -14%; change in vivo at 20 mg/kg (gastric secretion; [7]): -6%; change in vivo at 20 mg/kg (gastric secretion; [8]): -11%; ED50 (gastric secretion): 2.2 mg/kg; ability to reduce the gastric acid secretion (in words) (gastric secretion): interesting ability; LD50 at 360 h (in vivo): 550 mg/kg; LD50 (in vivo): 900 mg/kg
3 | CN(C)Cc1ccc(CSCCNc2nc(C=Cc3ccccc3)cs2)o1 [Example No. 4, 2-(2-(((5-(dimethylamino)methyl-2-furanyl)methyl)thio)ethyl)amino-4-styryl-thiazole] | 93 | 100 | 100 | 100 | 100 | 38 | 70 | 100 | 60 | 100 | 20 | 45 | 90 | 35 | 70 | interesting ability | 0,09 mEq/4 hours | 3,9 ml/4 hours | 0,08 mEq/4 hours | 4,0 ml/4 hours | Total acidity gastric juice secretion (gastric secretion; 24 hours before pilorus tieing): 0,14 mEq/4 hours; Volume gastric juice secretion (gastric secretion; 24 hours before pilorus tieing): 4,9 ml/4 hours; Total acidity gastric juice secretion (gastric secretion; 36 hours before pilorus tieing): 0,14 mEq/4 hours; Volume gastric juice secretion (gastric secretion; 36 hours before pilorus tieing): 5,3 ml/4 hours; change in vivo at 20 mg/kg (gastric secretion; [1]): -47%; change in vivo at 20 mg/kg (gastric secretion; [2]): -26%; change in vivo at 20 mg/kg (gastric secretion; [3]): -47%; change in vivo at 20 mg/kg (gastric secretion; [4]): -21%; change in vivo at 20 mg/kg (gastric secretion; [5]): -18%; change in vivo at 20 mg/kg (gastric secretion; [6]): -13%; change in vivo at 20 mg/kg (gastric secretion; [7]): -12%; change in vivo at 20 mg/kg (gastric secretion; [8]): -5%; ED50 (gastric secretion): 3.2 mg/kg; ability to reduce the gastric acid secretion (in words) (gastric secretion): interesting ability; LD50 at 360 h (in vivo): 2900 mg/kg; LD50 (in vivo): 3000 mg/kg
